Experimental findings from ChEMBL document CHEMBL1134625 (J Med Chem, 2001) are described below.

Assay [1] has as its target 5-hydroxytryptamine receptor 7 (Homo sapiens, UniProt P34969).
In assay [2] the target is T1, Adenosine receptor A3 (Homo sapiens, UniProt P0DMS8).
T1 sequence (P0DMS8 whole entry): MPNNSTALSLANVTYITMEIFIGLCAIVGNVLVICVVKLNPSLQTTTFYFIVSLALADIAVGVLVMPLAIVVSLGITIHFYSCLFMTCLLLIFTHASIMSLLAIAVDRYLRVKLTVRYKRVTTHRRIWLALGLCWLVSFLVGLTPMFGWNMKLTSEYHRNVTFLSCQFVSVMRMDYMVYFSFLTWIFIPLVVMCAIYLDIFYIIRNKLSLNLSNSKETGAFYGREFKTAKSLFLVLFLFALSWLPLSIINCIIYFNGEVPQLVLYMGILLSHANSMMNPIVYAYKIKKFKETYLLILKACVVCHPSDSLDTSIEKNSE

The target in assay [3] is T2, Sodium-dependent dopamine transporter (Homo sapiens, UniProt Q01959).
T2 sequence (Q01959 whole entry): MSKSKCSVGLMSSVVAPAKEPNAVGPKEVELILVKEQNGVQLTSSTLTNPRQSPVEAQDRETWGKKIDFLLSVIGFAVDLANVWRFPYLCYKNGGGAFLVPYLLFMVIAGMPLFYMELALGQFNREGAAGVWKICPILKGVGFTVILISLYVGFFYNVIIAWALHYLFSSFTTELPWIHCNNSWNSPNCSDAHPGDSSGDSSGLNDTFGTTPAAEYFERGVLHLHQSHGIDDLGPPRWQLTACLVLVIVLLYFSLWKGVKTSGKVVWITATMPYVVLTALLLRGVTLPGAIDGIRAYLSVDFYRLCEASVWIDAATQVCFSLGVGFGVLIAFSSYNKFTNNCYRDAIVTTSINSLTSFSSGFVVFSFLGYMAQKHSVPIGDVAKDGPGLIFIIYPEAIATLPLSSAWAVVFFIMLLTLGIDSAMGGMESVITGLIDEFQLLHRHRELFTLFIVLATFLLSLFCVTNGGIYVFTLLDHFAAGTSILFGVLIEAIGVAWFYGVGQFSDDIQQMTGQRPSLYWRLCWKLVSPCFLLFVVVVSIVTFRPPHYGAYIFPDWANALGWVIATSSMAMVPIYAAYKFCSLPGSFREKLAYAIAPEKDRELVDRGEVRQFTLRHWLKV
In assay [4] the target is D(1B) dopamine receptor (Homo sapiens, UniProt P21918).
Chain of D(1B) dopamine receptor (P21918 whole entry): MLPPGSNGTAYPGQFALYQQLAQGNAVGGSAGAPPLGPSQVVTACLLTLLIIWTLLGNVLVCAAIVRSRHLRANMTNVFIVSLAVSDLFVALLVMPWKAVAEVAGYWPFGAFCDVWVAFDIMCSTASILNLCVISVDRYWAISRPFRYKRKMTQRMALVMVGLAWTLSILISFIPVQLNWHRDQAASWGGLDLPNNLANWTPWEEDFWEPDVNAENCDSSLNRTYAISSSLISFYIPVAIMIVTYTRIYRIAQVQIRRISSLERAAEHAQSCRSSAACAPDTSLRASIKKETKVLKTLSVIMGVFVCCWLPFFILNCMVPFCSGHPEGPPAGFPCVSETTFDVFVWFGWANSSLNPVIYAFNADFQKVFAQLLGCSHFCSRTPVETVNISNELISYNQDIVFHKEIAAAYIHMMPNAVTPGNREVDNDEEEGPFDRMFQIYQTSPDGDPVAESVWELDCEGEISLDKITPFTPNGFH
In assay [5] the target is Voltage-gated L-type calcium channel (Homo sapiens, UniProt Q13936+Q13698+Q01668+O60840). Type of assay: protein assay.
Assay [6] addresses Substance-K receptor (Homo sapiens, UniProt P21452).
Assay [7] deals with 5-hydroxytryptamine receptor 6 (Homo sapiens, UniProt P50406).
Chain of 5-hydroxytryptamine receptor 6 (P50406 whole entry): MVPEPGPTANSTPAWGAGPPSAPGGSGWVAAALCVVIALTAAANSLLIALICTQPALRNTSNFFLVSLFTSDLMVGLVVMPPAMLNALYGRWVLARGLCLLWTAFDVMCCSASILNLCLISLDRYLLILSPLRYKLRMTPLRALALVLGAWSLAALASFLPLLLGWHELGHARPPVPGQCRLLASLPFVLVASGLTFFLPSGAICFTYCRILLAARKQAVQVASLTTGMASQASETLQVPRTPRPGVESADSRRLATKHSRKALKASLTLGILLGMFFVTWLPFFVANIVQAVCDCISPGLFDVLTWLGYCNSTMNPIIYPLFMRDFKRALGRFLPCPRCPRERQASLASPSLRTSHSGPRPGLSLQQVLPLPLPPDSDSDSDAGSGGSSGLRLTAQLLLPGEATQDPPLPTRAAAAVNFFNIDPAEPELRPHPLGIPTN
The target of assay [8] is T3, Adrenergic receptor alpha-1 (Homo sapiens, UniProt P35348+P25100+P35368).
T3 sequence (P35348 whole entry): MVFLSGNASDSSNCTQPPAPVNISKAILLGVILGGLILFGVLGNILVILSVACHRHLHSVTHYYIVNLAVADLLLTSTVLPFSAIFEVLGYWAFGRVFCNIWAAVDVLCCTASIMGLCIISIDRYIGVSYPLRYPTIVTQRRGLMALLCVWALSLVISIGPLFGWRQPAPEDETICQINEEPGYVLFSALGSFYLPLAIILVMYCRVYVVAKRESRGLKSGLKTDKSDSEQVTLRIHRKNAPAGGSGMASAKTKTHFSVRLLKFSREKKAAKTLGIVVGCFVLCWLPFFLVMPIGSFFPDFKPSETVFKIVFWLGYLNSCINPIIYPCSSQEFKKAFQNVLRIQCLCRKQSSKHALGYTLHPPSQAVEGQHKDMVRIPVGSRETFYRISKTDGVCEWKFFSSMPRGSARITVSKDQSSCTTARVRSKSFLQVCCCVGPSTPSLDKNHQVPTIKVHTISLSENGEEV
T3 sequence (P25100 whole entry): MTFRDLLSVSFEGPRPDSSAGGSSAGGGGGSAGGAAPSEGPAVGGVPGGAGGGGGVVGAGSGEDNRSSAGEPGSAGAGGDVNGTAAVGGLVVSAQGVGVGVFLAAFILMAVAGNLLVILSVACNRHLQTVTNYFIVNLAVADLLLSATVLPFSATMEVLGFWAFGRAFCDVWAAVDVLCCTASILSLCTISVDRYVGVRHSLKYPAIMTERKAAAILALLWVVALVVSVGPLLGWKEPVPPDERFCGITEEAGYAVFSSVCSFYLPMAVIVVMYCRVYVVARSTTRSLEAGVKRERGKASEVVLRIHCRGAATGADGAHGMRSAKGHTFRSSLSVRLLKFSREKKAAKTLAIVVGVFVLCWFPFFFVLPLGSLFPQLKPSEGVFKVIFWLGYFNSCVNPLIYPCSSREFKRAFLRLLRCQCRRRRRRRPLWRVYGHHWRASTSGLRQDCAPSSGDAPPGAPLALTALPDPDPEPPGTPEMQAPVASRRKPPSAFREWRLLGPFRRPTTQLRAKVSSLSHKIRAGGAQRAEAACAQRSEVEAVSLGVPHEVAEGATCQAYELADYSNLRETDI
T3 sequence (P35368 whole entry): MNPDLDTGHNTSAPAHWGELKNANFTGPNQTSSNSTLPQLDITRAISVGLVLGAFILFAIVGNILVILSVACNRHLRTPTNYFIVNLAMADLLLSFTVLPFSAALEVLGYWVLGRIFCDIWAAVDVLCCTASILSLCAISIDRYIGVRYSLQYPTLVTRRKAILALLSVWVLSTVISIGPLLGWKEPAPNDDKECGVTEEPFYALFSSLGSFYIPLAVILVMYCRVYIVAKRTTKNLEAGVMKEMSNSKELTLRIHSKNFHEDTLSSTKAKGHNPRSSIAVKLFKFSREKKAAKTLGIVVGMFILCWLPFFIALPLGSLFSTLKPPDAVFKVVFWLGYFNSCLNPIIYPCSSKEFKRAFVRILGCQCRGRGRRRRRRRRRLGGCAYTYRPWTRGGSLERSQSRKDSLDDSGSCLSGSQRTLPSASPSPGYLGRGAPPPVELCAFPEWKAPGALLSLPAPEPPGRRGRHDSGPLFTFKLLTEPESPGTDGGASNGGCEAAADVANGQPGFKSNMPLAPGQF
The assay is classed as protein assay.

Assay [9] deals with Histamine H2 receptor (Homo sapiens, UniProt P25021).
Chain of Histamine H2 receptor (P25021 whole entry): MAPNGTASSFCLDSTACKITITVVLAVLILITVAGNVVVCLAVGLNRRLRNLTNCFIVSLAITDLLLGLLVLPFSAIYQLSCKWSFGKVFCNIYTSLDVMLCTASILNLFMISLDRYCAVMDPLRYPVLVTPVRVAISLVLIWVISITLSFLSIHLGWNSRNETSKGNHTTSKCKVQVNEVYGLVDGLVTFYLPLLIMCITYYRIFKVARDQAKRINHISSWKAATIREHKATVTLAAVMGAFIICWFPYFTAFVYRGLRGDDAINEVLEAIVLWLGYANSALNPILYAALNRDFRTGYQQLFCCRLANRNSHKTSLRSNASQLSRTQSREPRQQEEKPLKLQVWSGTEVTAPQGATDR
For assay [10], the target named is D(3) dopamine receptor (Homo sapiens, UniProt P35462).
Chain of D(3) dopamine receptor (P35462 whole entry): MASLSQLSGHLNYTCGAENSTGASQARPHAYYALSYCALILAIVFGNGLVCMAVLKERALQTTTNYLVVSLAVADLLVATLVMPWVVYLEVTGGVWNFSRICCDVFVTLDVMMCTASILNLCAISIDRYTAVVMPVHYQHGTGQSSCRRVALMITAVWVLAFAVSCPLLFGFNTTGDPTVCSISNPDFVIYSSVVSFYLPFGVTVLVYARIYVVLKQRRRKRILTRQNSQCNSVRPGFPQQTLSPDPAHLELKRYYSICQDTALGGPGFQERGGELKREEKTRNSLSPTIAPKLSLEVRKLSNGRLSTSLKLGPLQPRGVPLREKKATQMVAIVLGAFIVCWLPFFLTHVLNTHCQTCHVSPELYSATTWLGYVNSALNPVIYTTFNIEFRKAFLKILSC
For assay [11], the target named is D(1A) dopamine receptor (Homo sapiens, UniProt P21728).
Chain of D(1A) dopamine receptor (P21728 whole entry): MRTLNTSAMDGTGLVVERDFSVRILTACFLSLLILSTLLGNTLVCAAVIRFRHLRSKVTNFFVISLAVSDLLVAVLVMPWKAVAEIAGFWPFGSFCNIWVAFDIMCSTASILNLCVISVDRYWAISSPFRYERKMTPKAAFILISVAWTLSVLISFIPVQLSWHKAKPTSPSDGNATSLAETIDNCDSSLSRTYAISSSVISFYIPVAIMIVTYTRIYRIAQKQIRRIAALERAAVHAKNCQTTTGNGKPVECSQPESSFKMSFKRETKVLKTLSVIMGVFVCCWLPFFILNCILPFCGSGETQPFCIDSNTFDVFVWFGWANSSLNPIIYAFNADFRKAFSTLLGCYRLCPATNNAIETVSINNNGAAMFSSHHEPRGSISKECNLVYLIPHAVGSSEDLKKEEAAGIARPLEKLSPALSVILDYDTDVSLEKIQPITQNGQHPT
Assay [12] concerns the target 5-hydroxytryptamine receptor 2A (Homo sapiens, UniProt P28223).
Assay [13] concerns the target Substance-P receptor (Homo sapiens, UniProt P25103).
The target in assay [14] is Histamine H1 receptor (Homo sapiens, UniProt P35367).
Chain of Histamine H1 receptor (P35367 whole entry): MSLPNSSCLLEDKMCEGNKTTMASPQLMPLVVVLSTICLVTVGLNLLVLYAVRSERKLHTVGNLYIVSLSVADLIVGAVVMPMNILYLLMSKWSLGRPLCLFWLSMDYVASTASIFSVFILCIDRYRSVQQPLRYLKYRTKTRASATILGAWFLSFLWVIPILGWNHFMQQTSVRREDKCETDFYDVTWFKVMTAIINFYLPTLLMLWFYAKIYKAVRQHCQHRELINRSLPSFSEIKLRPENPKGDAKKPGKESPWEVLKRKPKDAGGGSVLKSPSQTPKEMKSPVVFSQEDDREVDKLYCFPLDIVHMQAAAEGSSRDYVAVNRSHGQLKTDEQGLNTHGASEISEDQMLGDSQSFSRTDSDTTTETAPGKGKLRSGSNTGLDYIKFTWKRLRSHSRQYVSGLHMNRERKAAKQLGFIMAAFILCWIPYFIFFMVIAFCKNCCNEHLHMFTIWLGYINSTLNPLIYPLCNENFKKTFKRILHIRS
Assay [15] concerns the target T4, 5-hydroxytryptamine receptor 2C (Homo sapiens, UniProt P28335).
T4 sequence (P28335 whole entry): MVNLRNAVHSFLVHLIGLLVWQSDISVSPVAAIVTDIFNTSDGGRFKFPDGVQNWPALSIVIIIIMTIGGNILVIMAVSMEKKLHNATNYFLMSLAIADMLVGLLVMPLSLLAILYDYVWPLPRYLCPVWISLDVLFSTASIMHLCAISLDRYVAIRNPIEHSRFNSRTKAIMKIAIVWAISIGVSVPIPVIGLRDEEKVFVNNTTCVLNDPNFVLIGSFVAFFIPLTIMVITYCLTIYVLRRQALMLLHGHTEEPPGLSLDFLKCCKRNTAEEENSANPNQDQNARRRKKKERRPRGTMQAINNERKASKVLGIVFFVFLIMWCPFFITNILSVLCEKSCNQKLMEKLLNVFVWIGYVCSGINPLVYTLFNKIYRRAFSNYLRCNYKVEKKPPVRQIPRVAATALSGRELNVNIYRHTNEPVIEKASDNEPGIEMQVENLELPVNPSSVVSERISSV

For assay [16], the target named is D(2) dopamine receptor (Homo sapiens, UniProt P14416).
Chain of D(2) dopamine receptor (P14416 whole entry): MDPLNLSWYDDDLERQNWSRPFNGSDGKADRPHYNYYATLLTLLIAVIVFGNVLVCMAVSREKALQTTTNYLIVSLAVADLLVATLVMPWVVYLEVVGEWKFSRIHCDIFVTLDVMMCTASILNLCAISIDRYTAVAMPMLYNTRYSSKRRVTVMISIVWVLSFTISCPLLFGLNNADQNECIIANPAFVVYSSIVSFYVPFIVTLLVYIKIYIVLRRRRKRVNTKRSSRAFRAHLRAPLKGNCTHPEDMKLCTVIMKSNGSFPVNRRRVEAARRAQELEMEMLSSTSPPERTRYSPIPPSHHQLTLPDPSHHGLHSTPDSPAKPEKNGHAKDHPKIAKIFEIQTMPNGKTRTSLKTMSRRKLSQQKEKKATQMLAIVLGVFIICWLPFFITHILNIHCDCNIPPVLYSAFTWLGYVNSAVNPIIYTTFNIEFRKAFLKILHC
The target in assay [17] is T5, 5-hydroxytryptamine receptor 1A (Homo sapiens, UniProt P08908).
T5 sequence (P08908 whole entry): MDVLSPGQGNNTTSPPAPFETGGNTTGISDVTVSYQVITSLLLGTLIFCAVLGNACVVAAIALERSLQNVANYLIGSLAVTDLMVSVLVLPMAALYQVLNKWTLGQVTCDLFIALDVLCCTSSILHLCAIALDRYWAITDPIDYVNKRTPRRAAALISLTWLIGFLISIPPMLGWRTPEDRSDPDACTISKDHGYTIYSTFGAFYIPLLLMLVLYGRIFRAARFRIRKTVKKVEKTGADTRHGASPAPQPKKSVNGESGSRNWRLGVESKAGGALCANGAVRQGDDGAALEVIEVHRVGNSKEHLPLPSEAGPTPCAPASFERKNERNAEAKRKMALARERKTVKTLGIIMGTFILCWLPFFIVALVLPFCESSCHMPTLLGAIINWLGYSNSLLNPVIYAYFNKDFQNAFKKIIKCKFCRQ

The target in assay [18] is T6, D(4) dopamine receptor (Homo sapiens, UniProt P21917).
T6 sequence (P21917 whole entry): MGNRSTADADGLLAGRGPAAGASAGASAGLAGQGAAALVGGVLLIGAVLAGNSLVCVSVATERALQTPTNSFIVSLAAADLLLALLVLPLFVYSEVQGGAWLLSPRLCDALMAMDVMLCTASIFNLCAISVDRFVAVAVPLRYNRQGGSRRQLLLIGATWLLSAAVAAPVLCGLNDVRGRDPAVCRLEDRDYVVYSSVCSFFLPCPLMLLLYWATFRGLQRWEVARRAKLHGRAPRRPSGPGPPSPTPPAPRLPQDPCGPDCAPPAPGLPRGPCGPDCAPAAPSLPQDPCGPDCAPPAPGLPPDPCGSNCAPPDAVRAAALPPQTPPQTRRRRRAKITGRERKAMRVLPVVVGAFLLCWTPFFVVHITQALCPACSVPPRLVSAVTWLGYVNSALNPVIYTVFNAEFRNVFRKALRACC

The target of assay [19] is 5-hydroxytryptamine receptor 5A (Homo sapiens, UniProt P47898).
In assay [20] the target is Vasopressin V1a receptor (Homo sapiens, UniProt P37288).
Assay [21] has as its target T2, Sodium-dependent dopamine transporter. This is another data set of the same source.
In assay [22] the target is Adenosine receptor A1 (Homo sapiens, UniProt P30542).
Chain of Adenosine receptor A1 (P30542 whole entry): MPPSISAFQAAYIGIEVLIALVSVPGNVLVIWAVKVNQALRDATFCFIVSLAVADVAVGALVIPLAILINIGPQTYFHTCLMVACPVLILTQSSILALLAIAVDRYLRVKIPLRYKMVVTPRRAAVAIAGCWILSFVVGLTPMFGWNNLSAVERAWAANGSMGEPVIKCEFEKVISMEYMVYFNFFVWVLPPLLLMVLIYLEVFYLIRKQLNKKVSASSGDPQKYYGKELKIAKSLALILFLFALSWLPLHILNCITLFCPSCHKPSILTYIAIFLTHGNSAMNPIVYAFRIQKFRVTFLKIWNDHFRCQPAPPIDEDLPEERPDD

Chain of 5-hydroxytryptamine receptor 2A (P28223 whole entry): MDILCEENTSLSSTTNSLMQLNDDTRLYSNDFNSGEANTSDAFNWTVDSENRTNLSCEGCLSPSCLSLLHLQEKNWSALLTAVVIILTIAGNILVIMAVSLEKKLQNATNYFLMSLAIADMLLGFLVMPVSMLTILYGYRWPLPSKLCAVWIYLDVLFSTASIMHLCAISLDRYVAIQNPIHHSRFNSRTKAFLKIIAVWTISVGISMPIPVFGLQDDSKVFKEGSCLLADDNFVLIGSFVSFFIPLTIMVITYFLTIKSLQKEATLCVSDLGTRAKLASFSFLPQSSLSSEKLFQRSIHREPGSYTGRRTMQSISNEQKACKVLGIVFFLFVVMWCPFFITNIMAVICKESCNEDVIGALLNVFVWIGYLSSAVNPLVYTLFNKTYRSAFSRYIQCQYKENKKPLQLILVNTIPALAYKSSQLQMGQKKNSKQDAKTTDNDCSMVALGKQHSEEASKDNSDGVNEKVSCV
Chain of 5-hydroxytryptamine receptor 7 (P34969 whole entry): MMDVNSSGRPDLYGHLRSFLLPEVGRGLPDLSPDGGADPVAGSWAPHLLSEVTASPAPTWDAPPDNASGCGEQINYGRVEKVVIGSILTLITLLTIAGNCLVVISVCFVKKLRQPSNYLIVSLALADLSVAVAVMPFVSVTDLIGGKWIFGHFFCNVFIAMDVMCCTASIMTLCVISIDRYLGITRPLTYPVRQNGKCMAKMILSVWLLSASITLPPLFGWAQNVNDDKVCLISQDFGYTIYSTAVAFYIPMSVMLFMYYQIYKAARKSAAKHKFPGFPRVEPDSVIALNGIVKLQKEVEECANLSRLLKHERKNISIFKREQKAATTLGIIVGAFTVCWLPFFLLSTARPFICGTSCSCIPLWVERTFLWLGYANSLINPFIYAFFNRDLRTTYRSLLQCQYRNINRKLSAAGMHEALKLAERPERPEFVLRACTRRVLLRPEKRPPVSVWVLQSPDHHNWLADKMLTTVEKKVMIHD

As to `CCOc1ccc(CCNC(=O)N2CCN(CCCC(c3ccc(F)cc3)c3ccc(F)cc3)CC2)cc1`, the IC50 in [1] is 2.04 µM; in [2], 2.46 µM; in [3] it was 0.994 µM; in [4] it was 1.45 µM; in assay [5] it was 0.86 µM; in assay [6], 5.18 µM. For the same molecule, the IC50 in assay [7] was found to be 0.8 µM; in assay [8] it was 0.993 µM; in [9], 0.757 µM; in assay [10], 0.341 µM; in assay [11] it was 0.967 µM; in [12], 0.231 µM. Moreover, the IC50 in assay [13] turned out to be 0.839 µM; in [14], 1.82 µM; in assay [15], 1.42 µM; in assay [16], 2.89 µM.

On to `O=C(CCc1ccc(F)cc1)N1CCN(CCCC(c2ccc(F)cc2)c2ccc(F)cc2)CC1`, for which the IC50 in assay [1] was 1.17 µM; in [2], 5.08 µM; in assay [3] it was 1.28 µM; in assay [4], 3.02 µM; in assay [5], 4.3 µM; in [7], 1.35 µM. The IC50 in assay [8] was 1.17 µM; in assay [9] it was 1.34 µM; in assay [10], 0.977 µM; in [12] it was 1.03 µM; in assay [17] it was 1.11 µM; in assay [14], 1.66 µM. In [18], this molecule showed an IC50 of 0.716 µM.

Regarding `O=C(CCCc1ccccc1)N1CCN(CCCC(c2ccc(F)cc2)c2ccc(F)cc2)CC1`, the IC50 in assay [1] came out at 2.13 µM; in assay [3], 0.954 µM; in assay [4], 1.86 µM; in assay [5], 2.35 µM; in assay [19], 5.52 µM; in assay [7], 7.78 µM. In addition, the half-maximal inhibitory concentration (IC50) in assay [8] came to 2.19 µM; in assay [9], 1.98 µM; in [10], 0.758 µM; in assay [11] it was 2.75 µM; in [12], 0.95 µM; in assay [14], 1.93 µM. The IC50 in assay [15] came to 4.07 µM; in [18], 0.28 µM.

In the case of `O=C(OCCc1ccc(F)cc1)N1CCN(CCCC(c2ccc(F)cc2)c2ccc(F)cc2)CC1`, the IC50 was 0.726 µM in assay [1]; 4.21 µM in assay [2]; 1.65 µM in assay [3]; 1.55 µM in [4]; 2.73 µM in assay [5]; 1.53 µM in [7]. Moreover, the IC50 in assay [8] amounted to 1.64 µM; in assay [9], 1.25 µM; in assay [10] it was 0.456 µM; in [12], 1.06 µM; in assay [17] it was 1.14 µM; in [14], 1.28 µM. Moreover, the IC50 came out at 3.45 µM in assay [15], 0.338 µM in [18] and 2.62 µM in assay [16].

For the molecule `O=C(OC1CCc2ccccc21)N1CCC2(CC1)C(=O)NCN2c1ccccc1` (stereo not drawn), the results for the IC50 in assay [10], in assay [15] and in assay [20] were 3.18 µM, 0.345 µM and 5.16 µM, respectively.

With `N#Cc1ccc(CCOC(=O)N2CCN(CCCC(c3ccc(F)cc3)c3ccc(F)cc3)CC2)cc1`, the IC50 in assay [1] was determined as 1.44 µM; in assay [2], 3.48 µM; in assay [3], 0.996 µM; in assay [4], 0.988 µM; in [5], 1.72 µM; in assay [19], 3.38 µM. In addition, the IC50 in assay [7] is 2.28 µM; in assay [8], 1.1 µM; in assay [9], 1.03 µM; in [10], 0.195 µM; in [11], 1.12 µM; in assay [12] it was 0.715 µM. Further, the IC50 was 1.02 µM in assay [17], 0.795 µM in assay [14], 0.776 µM in [18] and 2.24 µM in assay [16].

As to `O=C(OCc1cccc(Oc2ccccc2)c1)N1CCC2(CC1)C(=O)NCN2c1ccccc1`, the IC50 in assay [2] stood at 1.51 µM; in [21], 2.94 µM; in [17], 2.08 µM; in assay [15] it was 0.652 µM.

For `O=C(NCCCn1c(=O)[nH]c2ccccc21)OCc1cc2c(cc1Cl)OCO2`, the IC50 in assay [2] turned out to be 3.33 µM; in assay [22] it was 0.344 µM.
